Assay results taken from patent publication US12156893B2, “Oral composition comprising lactic acid bacteria for regulating immune responses and methods related thereto” (The Regents of the University of California, priority 2016, dated 2024).

Test system: NK cells
Assay: Production of cytokines, growth factors and chemokines by NK cells treated with bacterial strains (Bio-Plex 27-plex)
Assay type: cell-based, human
Design: unit not given here
Description: Different strains of probiotic bacteria were tested for their ability to induce IFN-g as well as a number of important cytokines, chemokines and growth factors (Table 1). To assess the levels of each strain used in the combination we used an activation index established in the lab for the NK cells which consisted of the use of a specific ratio of several important cytokines and chemokines that prevented auto-immunity while enhancing significant activation of NK cells under pathologic conditions. Therefore, the strains were selected to: 1) provide regulated activation of NK cells when no activation of NK cells is desired; 2) when activated by cytokines and/or cross-linking of the important receptors which occurs during functional activation of NK cells in cancer is to induce maximal activation of NK cells; and 3) provide diversity for gut microflora. These criteria allow us to use bacteria to regulate the gut mucosal immunity in such a way that we will only increase NK activation when needed during infections or malignancies. In other words when there is no need for function of NK cells bacteria will regulate NK function to not induce inflammation; however, during need which occurs under the pathological conditions NK cells are triggered to function at the maximal levels. Such coordinated regulation of NK cell function should be effective in halting unwanted inflammation while providing effective and maximal immunity during disease.
Written informed consents, approved by UCLA Institutional Review Board (IRB), were obtained from healthy blood donors, and all procedures were approved by the UCLA-IRB. Peripheral blood was separated using Ficoll-Hypaque centrifugation, after which the white, cloudy layer, containing peripheral blood mononuclear cells (PBMC), was harvested, washed and re-suspended in RPMI 1640 (Invitrogen by Life Technologies, CA) supplemented with 10% FBS and plated on plastic tissue culture dishes. After 1-2 hours of incubation, non-adherent, human peripheral blood lymphocytes (PBL) were collected. NK cells were negatively selected and isolated from PBLs using the EasySep® Human NK cell enrichment kit purchased from Stem Cell Technologies (Vancouver, BC, Canada). Isolated NK cells were stained with anti-CD16 antibody, to measure NK cell purity using flow cytometric analysis. The isolated NK cell population was greater than 90% purity. Purified NK cells were cultured in RPMI Medium 1640 supplemented with 10% FBS (Gemini Bio-Products, CA), 1% antibiotic antimycotic, 1% sodium pyruvate, and 1% MEM non-essential amino acids (Invitrogen, Life Technologies, CA).
Purified NK cells from healthy donors were left untreated or treated with IL-2 (1000 units/ml) or the combination of anti-CD16 mAb (3 μg/ml) and IL-2 (1000 units/ml) in the presence or absence of bacterial strains at 1:5 ratio (NK cell: bacteria) for 12-18 hours. Afterwards, the levels of cytokines, growth factors and chemokines were determined using Bio-Plex Pro Human Cytokine 27-plex Assay Kit.

[1] = Treatment NK (no activation), bacteria 1:5 NK cell:bacteria, 12-18 hours
[2] = Treatment NK + IL-2 (1000 units/ml), bacteria 1:5, 12-18 hours
[3] = Treatment NK + IL-2 + anti-CD16 mAb (3 μg/ml), bacteria 1:5, 12-18 hours

Bifidobacterium breve [B. breve]
Eotaxin [1]: 15
G-CSF [1]: 363
GM-CSF [1]: 101
IFN-γ [1]: 99
IL-1B [1]: 200
IL-1ra [1]: 196
IL-6 [1]: 9726
IL-8 [1]: 3975
IL-10 [1]: 127
IL-12p70 [1]: 10
IL-13 [1]: 5
IL-17 [1]: 53
IP-10 [1]: 32
MCP-1 [1]: 265
RANTES [1]: 1662
TNF-α [1]: 2904
Eotaxin [2]: 22
G-CSF [2]: 138
GM-CSF [2]: 127
IFN-γ [2]: 284
IL-1B [2]: 165
IL-1ra [2]: 470
IL-6 [2]: 3402
IL-8 [2]: 1912
IL-10 [2]: 36
IL-12p70 [2]: 21
IL-13 [2]: 9
IL-17 [2]: 57
IP-10 [2]: 35
MCP-1 [2]: 72
RANTES [2]: 1988
TNF-α [2]: 1868
Eotaxin [3]: 29
G-CSF [3]: 289
GM-CSF [3]: 180
IFN-γ [3]: 844
IL-1B [3]: 421
IL-1ra [3]: 565
IL-6 [3]: 7261
IL-8 [3]: 4929
IL-10 [3]: 68
IL-12p70 [3]: 26
IL-13 [3]: 28
IL-17 [3]: 72
IP-10 [3]: 55
MCP-1 [3]: 153
RANTES [3]: 3934
TNF-α [3]: 1498

Bifidobacterium infantis [B. infantis]
Eotaxin [1]: 18
G-CSF [1]: 145
GM-CSF [1]: 123
IFN-γ [1]: 275
IL-1B [1]: 249
IL-1ra [1]: 179
IL-6 [1]: 6136
IL-8 [1]: 4265
IL-10 [1]: 55
IL-12p70 [1]: 66
IL-13 [1]: 1
IL-17 [1]: 56
IP-10 [1]: 57
MCP-1 [1]: 451
RANTES [1]: 2234
TNF-α [1]: 5728
Eotaxin [2]: 19
G-CSF [2]: 190
GM-CSF [2]: 163
IFN-γ [2]: 3073
IL-1B [2]: 422
IL-1ra [2]: 459
IL-6 [2]: 6618
IL-8 [2]: 5090
IL-10 [2]: 41
IL-12p70 [2]: 115
IL-13 [2]: 19
IL-17 [2]: 72
IP-10 [2]: 113
MCP-1 [2]: 382
RANTES [2]: 3225
TNF-α [2]: 5103
Eotaxin [3]: 32
G-CSF [3]: 151
GM-CSF [3]: 178
IFN-γ [3]: 1250
IL-1B [3]: 365
IL-1ra [3]: 434
IL-6 [3]: 3927
IL-8 [3]: 3557
IL-10 [3]: 34
IL-12p70 [3]: 47
IL-13 [3]: 22
IL-17 [3]: 65
IP-10 [3]: 88
MCP-1 [3]: 360
RANTES [3]: 2646
TNF-α [3]: 5287

Bifidobacterium longum [B. longum]
Eotaxin [1]: 32
G-CSF [1]: 938
GM-CSF [1]: 131
IFN-γ [1]: 158
IL-1B [1]: 813
IL-1ra [1]: 312
IL-6 [1]: 60895
IL-8 [1]: 9507
IL-10 [1]: 298
IL-12p70 [1]: 42
IL-13 [1]: 9
IL-17 [1]: 74
IP-10 [1]: 38
MCP-1 [1]: 80
RANTES [1]: 2325
TNF-α [1]: 5880
Eotaxin [2]: 33
G-CSF [2]: 244
GM-CSF [2]: 135
IFN-γ [2]: 671
IL-1B [2]: 408
IL-1ra [2]: 472
IL-6 [2]: 7287
IL-8 [2]: 2195
IL-10 [2]: 52
IL-12p70 [2]: 47
IL-13 [2]: 11
IL-17 [2]: 73
IP-10 [2]: 46
MCP-1 [2]: 33
RANTES [2]: 2189
TNF-α [2]: 2896
Eotaxin [3]: 28
G-CSF [3]: 386
GM-CSF [3]: 158
IFN-γ [3]: 1282
IL-1B [3]: 498
IL-1ra [3]: 461
IL-6 [3]: 2916
IL-8 [3]: 2906
IL-10 [3]: 68
IL-12p70 [3]: 33
IL-13 [3]: 19
IL-17 [3]: 69
IP-10 [3]: 42
MCP-1 [3]: 75
RANTES [3]: 1088
TNF-α [3]: 4240
